Assay results reported in US8283324B2, “Immunomodulatory and anti-tumour peptides” (Centro de Ingenieria Genetica y Biotecnologia, priority 2006, dated 2012).

Experiments:
[1] = competition ELISA for heparin-binding capacity; details: peptides at 2 μM with 250 units of heparin; FIG. 2
Experimental: This assay consists on a competition ELISA system, similar to the previously described one. The biotinylated LALF32-51 peptide was adsorbed to polystyrene plates (Costar, USA) in 1×PBS and incubated overnight at 4° C. Analogous peptides L-2, L-8, L-12 and L-20 were mixed at 2 μM with 250 units of heparin (Sodic Heparin, 5,000 U/ml, Liorad) in 1×PBS plus 0.1% of bovine serum albumin (BSA). Afterwards, mixes were added to an ELISA plate containing 0.02 μM of the biotinylated LALF32-51 peptide adsorbed to the solid surface. After a 1 h-incubation at room temperature, plates were washed five times with washing solution and the biotinylated LALF32-51 peptide fixed to the solid surface was detected by incubating for 45 min at 37° C. with streptavidin-peroxidase conjugate at a 1:2,000. Afterwards, plates were washed five times with washing solution and the substrate solution was added. After an additional incubation for 15 min, the reactions were stopped with 2 M sulphuric acid solution. The lack of heparin binding to the analogous peptides correlates with the […] optical density, because they are unable to displace the heparin bound to the biotinylated LALF32-51 peptide adsorb to the solid surface. The unlabeled LALF32-51 peptide at a 100× molar excess was used as control of the assay.

IFN-α gene = IFN-α gene expression in human mononuclear cells (RT-PCR); assay type: cell-based; details: 40 μg/ml, 18 h
Experimental: (§1) For this assay, human mononuclear cells were isolated by a Ficoll-Hypaque gradient from a leukocyte concentrate or “Buffy Coat” of a donor. Up to 5×10^6 were seeded in 24-well plates in RPMI 1640 medium supplemented with 10% calf fetal serum. Each peptide was further added at 40 μg/ml in a 0.1 ml volume of RPMI medium and cells were cultured for 18 h at 37° C. and 5% of CO2. Total RNA was extracted by using the TriReagent method. Afterwards, the expressions of IFN-α, IFN-γ and IL-12 genes were determined by the reverse transcription reaction and PCR amplification (RT-PCR kit, Perkin Elmer). Results are shown as relative amounts of messenger RNA normalized against expression levels of the β-actin housekeeping gene.

IFN-γ gene = IFN-γ gene expression in human mononuclear cells (RT-PCR); assay type: cell-based; details: 40 μg/ml, 18 h; mRNA normalized against β-actin; FIG. 3A
Experimental: as §1

IL-12 gene = IL-12 gene expression in human mononuclear cells (RT-PCR); assay type: cell-based; details: 40 μg/ml, 18 h; mRNA normalized against β-actin; FIG. 3A
Experimental: as §1

TC-1 tumor cells = assay: anti-tumoral effect in the TC-1 tumor model; assay type: in vivo; details: 4 mg per kg s.c.
Experimental: Eight-to-ten weeks-old C57BI/6 female mice were used for this assay (n=10 animals per experimental group). For tumor graft, TC-1 tumor cells derived from C57BI/6 malignant epithelial lung cells were used, being resuspended in phosphate-buffered saline (PBS). An amount of 50,000 cells in a 200 μl volume was inoculated to mice by subcutaneous route in the right hind limb. The first peptide administration was carried out by subcutaneous route in the right flank once tumor reached a 100 mm^3 volume, and the second was carried out after 10 days. In this assay, a 4 mg per kg of weight dose was evaluated (80 μg/mice). Animal survival and tumor mass were the parameters evaluated to measure the anti-tumoral effect peptides of interest, as shown in FIGS. 4A and 4B. […] The Log Rank method was used as statistical analysis for detecting significant differences between groups.

MB16-F10 tumor cells = assay: anti-tumoral effect in a melanoma model; assay type: in vivo, C57BI/6 female mice; details: 4 mg per kg
Experimental: Eight-to-ten weeks-old C57BI/6 female mice were used for this assay (n=10 animals per experimental group). For tumor graft, MB16-F10 tumor cells were used, being resuspended in phosphate-buffered saline (PBS). An amount of 15,000 cells were inoculated in a 200 μl volume by subcutaneous route in the right hind limb. After 4 days, the L-2 peptide was administered, with the second injection administered 7 after the first, and the third immunization was administered 14 days after. In this assay was evaluated a dose of 4 mg of peptide per kg of animal weight. Parameters evaluated to measure the anti-tumoral effect of the given peptide during this assay were the time of tumor grafting and the animal survival.

[2] = system: mice lung cancer 3LLD122 cells; assay: metastasis model of Lewis' carcinoma; assay type: in vivo, C57BI/6 female mice; details: 4 mg/kg s.c. after 7 days; sacrifice 21 days after removal of primary tumor; FIG. 8
Experimental: Eight-to-ten weeks-old C57BI/6 female mice were used for this assay (n=8 animals per experimental group). These animals were inoculated in the posterior right footpad with 250,000 mice lung cancer 3LLD122 cells. After 7 days, a 4 mg/kg of body weight dose of the L-2 analogous peptide was subcutaneously injected. When tumors reached 8 mm in diameter, the primary tumor was surgically removed from the carrier leg. Mice were sacrificed 21 days after this surgical procedure. Lungs were weighed to indicate the amount of metastasis on them.

TC-1 cells = assay: growth of tumor cells, crystal violet, TC-1; assay type: cell-based, C57BI/6; details: 9 μM to 300 μM, 72 h; FIG. 9
Experimental: (§2) For this assay, TC-1, H-125 (non-small human ling cancer cells) and L929) murine fibroblast) cells were seeded in 96-well culture plates (Costar) at a 2×10^4 cells/ml in Dulbecco's modified Eagle's medium (DMEM)(Gibco) supplemented with Calf Fetal Serum (Gibco). After 24 h, the peptides were added to the culture in a range of 9 μM to 300 μM. […] Plates were extensively washed with tap water and plates were read at 562 nm. A pro-apoptotic peptide with a marked anti-proliferative effect in vitro was employed as positive control (Perea, S., et al (2004) Antitumor Effect of a Novel Proapoptotic Peptide that Impairs the Phosphorylation by the Protein Kinase 2 Cancer Research 64: 7127-7129).

[3] = system: H-125 (non-small human ling cancer cells); assay: growth of tumor cells, crystal violet, H-125; assay type: cell-based; details: 9 μM to 300 μM, 72 h; FIG. 9
Experimental: as §2

[4] = system: L929 murine fibroblast cells; assay: growth of cells, crystal violet, L929; assay type: cell-based; details: 9 μM to 300 μM, 72 h; FIG. 9
Experimental: as §2

[5] = at 100 mm^3 tumor volume and after 10 days, FIG. 4

## HARIKPTFRRLKWKYKGKFW [Peptide L-2, alanine-substituted analogue of LALF 32-51]
[1]
  heparin binding: unable to bind heparin
IFN-α gene; FIG. 3B
  expression of the IFN-α gene compared to the LALF32-51 peptide: more effective
IFN-α gene; mRNA normalized against β-actin, FIG. 3A
  expression of the IFN-α gene: capable of inducing the expression
IFN-γ gene
  expression of the IFN-γ gene: capable of inducing the expression
IL-12 gene
  expression of the IL-12 gene: capable of inducing the expression
TC-1 tumor cells; [5]
  survival of mice: prolonging survival of mice
  tumor progression (tumor mass): effective for inhibiting tumor progression
TC-1 tumor cells; Log Rank, *p<0.05
  survival of animals compared to the LALF32-51 peptide: significantly increase the survival of animals
MB16-F10 tumor cells; three administrations starting after 4 days, Log Rank *p<0.05, FIG. 5A
  time of tumor grafting: significantly delayed tumor grafting
MB16-F10 tumor cells; three administrations, Log Rank *p<0.05, FIG. 5B
  animal survival: significantly increased the survival of animals
MB16-F10 tumor cells; FIG. 5B
  animal survival compared to the LALF32-51 peptide: more effective than the LALF32-51 peptide
[2]
  metastasis (lung weight): able to reduce the metastatic tumor events
TC-1 cells
  anti-proliferative effect: dose-dependent anti-proliferative effect
[3]
  anti-proliferative effect: dose-dependent anti-proliferative effect
[4]
  anti-proliferative effect: no effect was detected
